Measured values from ChEMBL document CHEMBL4043261, “Cytotoxic properties of the alkaloid rutaecarpine and its oligocyclic derivatives and chemical modifications to enhance water-solubility” (Bioorg Med Chem Lett, 2017).
≈ marks a conversion by molar mass, not a printed value.

What was measured:
HeLa = experiment: Cytotoxicity against human HeLa cells by MTT assay; format: functional, cell-based
[1] = Solubility of the compound in minimal essential medium at 1 to 2 mg after 24 hrs in absence of 10% FCS by HPLC-UV based shake-flask method; format: physicochemical; settings: BLD = below limit of detection
[2] = Solubility of the compound in minimal essential medium at 1 to 2 mg after 24 hrs in presence of 10% FCS by HPLC-UV based shake-flask method; format: physicochemical; settings: BLD = below limit of detection
[3] = Aqueous solubility of the compound in phosphate buffered saline at pH 7.4 after 24 hrs by HPLC-UV based shake-flask method; format: physicochemical
[4] = Dissociation constant, pka of the compound by potentiometric titration method; format: physicochemical
[5] = Aqueous solubility of the compound in phosphate buffered saline at pH 6.8 after 24 hrs by HPLC-UV based shake-flask method; format: physicochemical
[6] = Intrinsic solubility of the compound at pH 2 by turbidimetric titration method; format: physicochemical; settings: buffer, read-out: Intrinsic_solubility
[7] = Aqueous solubility of the compound in deionized water after 24 hrs by HPLC-UV based shake-flask method; format: physicochemical; settings: buffer
[8] = Solubility of the compound in water; format: physicochemical; settings: buffer
[9] = phosphate buffered saline, pH 7.4
[10] = phosphate buffered saline, pH 6.8

Row | SMILES | EC50 (HeLa) | solubility [1] | solubility [2] | further results
1 | O=c1c2cc(Cl)ccc2nc2n1CCc1c-2[nH]c2ccccc12 | 7.2 µM | – | – | –
2 | COc1cc2nc3n(c(=O)c2cc1OC)CCc1c-3[nH]c2ccccc12 | 60.8 µM | Bld | Bld | –
3 | CCN(CC)CCCn1c2c(c3ccccc31)CCn1c-2nc2ccc(O)cc2c1=O.Cl | 9.8 µM | – | – | solubility thermodynamic at 24 h [3, 9]: 1900 µM; pKa [4]: 8.94; solubility thermodynamic at 24 h [5, 10]: 7400 µM; solubility [6]: 53.2 µM
4 | O=c1c2cc(O)ccc2nc2n1CCc1ccccc1-2 | 53.9 µM | – | – | –
5 | O=c1c2cc(Cl)ccc2nc2n1CCc1ccccc1-2 | 20.6 µM | Bld | Bld | –
6 | C=C1C(=O)O[C@@H]2C[C@@H](C)[C@@H]3C=CC(=O)[C@@]3(C)[C@@H](O)[C@H]12 [HELENALIN] | 0.7 µM | – | – | –
7 | O=c1c2cc(O)ccc2nc2n1CCc1c-2[nH]c2ccccc12 | 11.3 µM | – | – | –
8 | CCN(CC)CCCOc1ccc2nc3n(c(=O)c2c1)CCc1c-3[nH]c2ccccc12.Cl | 17.1 µM | – | – | solubility thermodynamic at 24 h [3, 9]: 45.8 µM; pKa [4]: 9.29; solubility thermodynamic at 24 h [5, 10]: 180 µM; solubility [6]: 0.7 µM
9 | Cl.O=c1c2cc(OCCCN3CCCCC3)ccc2nc2n1CCc1c-2[nH]c2ccccc12 | 16.3 µM | Bld | Bld | solubility thermodynamic at 24 h [3, 9]: 5.62 µM; pKa [4]: 9.36; solubility thermodynamic at 24 h [5, 10]: 21.8 µM; solubility [6]: 0.21 µM
10 | O=c1c2ccccc2nc2n1CCc1ccccc1-2 | 64.2 µM | – | – | –
11 | O=c1c2sc3ncccc3c2nc2n1CCc1c-2[nH]c2ccccc12 | 22.1 µM | – | – | –
12 | O=c1c2sc3ccccc3c2nc2n1CCc1c-2[nH]c2ccccc12 | 8.4 µM | Bld | Bld | –
13 | O=c1c2ccccc2nc2n1CCc1c-2[nH]c2ccccc12 [RUTAECARPINE] | 26.1 µM | Bld | Bld | solubility [7]: 0.0328 µM (≈ 9.42 ng/mL); solubility thermodynamic at 24 h ([3]; buffer, pH 7.4, 24 h): 0.0271 µM (≈ 7.79 ng/mL); solubility thermodynamic at 24 h ([5]; buffer, pH 6.8, 24 h): 0.0257 µM (≈ 7.38 ng/mL); solubility [8]: 0.033 µM (≈ 9.48 ng/mL)
14 | Cl.O=c1c2cc(O)ccc2nc2n1CCc1c-2n(CCCN2CCCCC2)c2ccccc12 | 15.4 µM | – | – | solubility thermodynamic at 24 h [3, 9]: 441 µM; pKa [4]: 8.8; solubility thermodynamic at 24 h [5, 10]: 1710 µM; solubility [6]: 15.5 µM
